From PubChem BioAssay AID256 (DTP/NCI, 2004)
Values joined by “and” are separate entries in the source; they are usually repeats but may differ in a detail not shown here. Equal values may be shown once. Inconclusive results and toxic doses are left out. How the source made its calls: active means survival T/C of 150% or more; inactive means T/C below 125% in these data.

Tested on: CD2F1 mice, L1210 leukemia ip, survival T/C
Experiment: NCI In Vivo Anticancer Drug Screen. Data for tumor model L1210 Leukemia (intraperitoneal) in CD2F1 (CDF1) mice
Conditions: endpoint: mean survival time, higher = longer survival
In short: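 Activity against a transplanted murine tumor was judged by comparing the compound group with a vehicle group. The outcome in the treated animals was divided by that in the controls.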

[1] = dose: 25.0 mg/kg/injection, schedule: Q01DX009 (ip), vehicle: saline with Tween-80
[2] = dose: 50.0 mg/kg/injection, schedule: Q01DX009 (ip), vehicle: saline with Tween-80
[3] = dose: 100.0 mg/kg/injection, schedule: Q01DX009 (ip), vehicle: saline with Tween-80
[4] = dose: 100.0 mg/kg/injection, schedule: Q04DX003 (ip), vehicle: saline with Tween-80
[5] = dose: 200.0 mg/kg/injection, schedule: Q04DX003 (ip), vehicle: saline with Tween-80
[6] = dose: 400.0 mg/kg/injection, schedule: Q04DX003 (ip), vehicle: saline with Tween-80
[7] = dose: 25.0 mg/kg/injection, schedule: Q04DX003 (ip), vehicle: saline with Tween-80
[8] = dose: 50.0 mg/kg/injection, schedule: Q04DX003 (ip), vehicle: saline with Tween-80
[9] = dose: 100.0 mg/kg/injection, schedule: Q01DX001 (ip), vehicle: saline with Tween-80
[10] = dose: 200.0 mg/kg/injection, schedule: Q01DX001 (ip), vehicle: saline with Tween-80
[11] = dose: 200.0 mg/kg/injection, schedule: Q01DX009 (ip), vehicle: saline with Tween-80

Measured: T/C

O=C(O)C(O)C(O)C(=O)O.[NH-]C1CCCCCC1[NH-].[Pt+2] (stereo unspecified)
inactive: dose: 2.5 mg/kg/injection, schedule: Q04DX003 (ip), vehicle: dextrose 123 % of control
active: dose: 5.0 mg/kg/injection, schedule: Q04DX003 (ip), vehicle: dextrose 153 % of control | dose: 20.0 mg/kg/injection, schedule: Q04DX003 (ip), vehicle: dextrose 152 % of control and 273 % of control

CC(C)NC(=O)CCSCCC(=O)NC(C)C
inactive: dose: 25.0 mg/kg/injection, schedule: Q04DX002 (ip), vehicle: other 89 % of control | dose: 50.0 mg/kg/injection, schedule: Q04DX002 (ip), vehicle: other 93 % of control | dose: 100.0 mg/kg/injection, schedule: Q04DX002 (ip), vehicle: other 97 % of control | dose: 200.0 mg/kg/injection, schedule: Q04DX002 (ip), vehicle: other 89 % of control

COCC/C=C/CCl
inactive: [1] 100 % of control | [2] 92 % of control | [3] 100 % of control

C#CCOC1CCCC1O (stereo unspecified)
inactive: dose: 100.0 mg/kg/injection, schedule: Q04DX003 (ip), vehicle: acetone 101 % of control

CC12CCCC1=C1CCC3CC(OC(=O)c4ccccc4)CCC3(C)C1CC2 (stereo unspecified)
inactive: [4] 100 % of control | [5] 96 % of control | [6] 100 % of control

C=CC1CN2CCC1CC2C(O)c1ccnc2ccccc12 (stereo unspecified) (tested in a mixture with another compound)
inactive: [7] 100 % of control | dose: 50.0 mg/kg/injection, schedule: Q01DX001 (ip), vehicle: saline with Tween-80 100 % of control | [2] 96 % of control | [8] 98 % of control | [9] 96 % of control and 92 % of control | [3] 98 % of control | [4] 93 % of control and 100 % of control | [10] 104 % of control and 92 % of control | [11] 90 % of control

CC12CCC3C(CCC4=CC(=O)C(C(O)(C(F)(F)F)C(F)(F)F)CC43C)C1CC(C(O)(C(F)(F)F)C(F)(F)F)C2=O (stereo unspecified)
inactive: dose: 100.0 mg/kg/injection, schedule: Q01DX009 (sc), vehicle: steriod suspending solution 90 % of control | dose: 200.0 mg/kg/injection, schedule: Q01DX009 (sc), vehicle: steriod suspending solution 95 % of control | dose: 400.0 mg/kg/injection, schedule: Q01DX009 (sc), vehicle: steriod suspending solution 92 % of control

CSC(=S)N/N=C/c1ccccn1
inactive: [2] 97 % of control | [3] 98 % of control | [4] 103 % of control | [5] 94 % of control

CC(=O)Nc1ccc(C=O)cc1
inactive: dose: 50.0 mg/kg/injection, schedule: Q04DX003 (ip), vehicle: saline 102 % of control | dose: 100.0 mg/kg/injection, schedule: Q04DX003 (ip), vehicle: saline 100 % of control | dose: 200.0 mg/kg/injection, schedule: Q04DX003 (ip), vehicle: saline 100 % of control

COC(=O)c1[nH]cnc1/N=N/N(C)C.[Cl][Cu][Cl]
inactive: dose: 2.5 mg/kg/injection, schedule: Q01DX001 (ip), vehicle: saline 98 % of control | dose: 5.0 mg/kg/injection, schedule: Q01DX001 (ip), vehicle: saline 92 % of control | dose: 10.0 mg/kg/injection, schedule: Q01DX001 (ip), vehicle: saline 88 % of control and 96 % of control | dose: 20.0 mg/kg/injection, schedule: Q01DX001 (ip), vehicle: saline 111 % of control

CC1C=COC(C)CO1 (stereo unspecified) (tested in a mixture with another compound)
inactive: [4] 103 % of control | [5] 97 % of control | [6] 95 % of control

O=C(NC(CO)C(=O)OCc1ccccc1)OCc1ccccc1 (stereo unspecified)
inactive: [3] 107 % of control | [11] 96 % of control | dose: 400.0 mg/kg/injection, schedule: Q01DX009 (ip), vehicle: saline with Tween-80 91 % of control

O=C(C[n+]1ccccc1Cc1ccccc1)c1ccccc1
inactive: [7] 93 % of control | [8] 96 % of control | [4] 101 % of control

O=C(c1ccccc1[N+](=O)[O-])C(Br)C(Br)c1ccc(Cl)c(Cl)c1 (stereo unspecified)
inactive: [1] 87 % of control and 94 % of control | [2] 100 % of control | [8] 90 % of control | [9] 107 % of control | dose: 100.0 mg/kg/injection, schedule: Q04DX002 (ip), vehicle: saline with Tween-80 89 % of control and 100 % of control | [4] 87 % of control | [10] 95 % of control | dose: 200.0 mg/kg/injection, schedule: Q04DX002 (ip), vehicle: saline with Tween-80 86 % of control and 96 % of control | [5] 90 % of control | dose: 400.0 mg/kg/injection, schedule: Q04DX002 (ip), vehicle: saline with Tween-80 86 % of control and 90 % of control
